A short description of series [1]: SRB cytotoxicity assay, hepatocyte HL-7702. The format is cell-based, human. The settings on record: SRB assay, 48 h, human hepatocyte, mean ± SD, read-out: IC50 Cytotoxicity HL-7702. The source says: (§1) The cell lines MDA-MB-231 (No. TCHu227), A549 (No. TCHu150), and HepG2 (No. TCHu72) were obtained from the Cell Bank/Stem Cell Bank, Chinese Academy of Sciences (Shanghai, China). The cell lines DLD-1 (No. CC0507) and HCT116 (No. CC0506) were obtained from the Cell Bank of Cellcook Biotech Co., Ltd. (Guangzhou, China). Cell line HL-7702 (No. BNCC338358) was obtained from Bena Culture Collection (Zhengzhou, China).
(§2) The human cancer cell lines MDA-MB-231 (breast adenocarcinoma), DLD-1 (colorectal adenocarcinoma), A549 (lung epithelial carcinoma), HCT116 (colorectal adenocarcinoma), HepG2 (hepatocellular carcinoma), and human hepatocyte HL-7702 were cultured in Dulbecco’s modified eagle medium (DMEM, Biological Industries, Beit Haemek, Israel) containing 10% (v/v) fetal bovine serum (FBS, Biological Industries, Beit Haemek, Israel) at 37 °C in a humidified incubator (ThermoFisher, Carlsbad, CA, USA) with a 5% CO2 atmosphere.

In the next series the target is T1, DNA Topo I (Homo sapiens, UniProt P11387).
T1 construct: purchased ThermoFisher, Waltham, MA, USA
T1 sequence (P11387 1-765): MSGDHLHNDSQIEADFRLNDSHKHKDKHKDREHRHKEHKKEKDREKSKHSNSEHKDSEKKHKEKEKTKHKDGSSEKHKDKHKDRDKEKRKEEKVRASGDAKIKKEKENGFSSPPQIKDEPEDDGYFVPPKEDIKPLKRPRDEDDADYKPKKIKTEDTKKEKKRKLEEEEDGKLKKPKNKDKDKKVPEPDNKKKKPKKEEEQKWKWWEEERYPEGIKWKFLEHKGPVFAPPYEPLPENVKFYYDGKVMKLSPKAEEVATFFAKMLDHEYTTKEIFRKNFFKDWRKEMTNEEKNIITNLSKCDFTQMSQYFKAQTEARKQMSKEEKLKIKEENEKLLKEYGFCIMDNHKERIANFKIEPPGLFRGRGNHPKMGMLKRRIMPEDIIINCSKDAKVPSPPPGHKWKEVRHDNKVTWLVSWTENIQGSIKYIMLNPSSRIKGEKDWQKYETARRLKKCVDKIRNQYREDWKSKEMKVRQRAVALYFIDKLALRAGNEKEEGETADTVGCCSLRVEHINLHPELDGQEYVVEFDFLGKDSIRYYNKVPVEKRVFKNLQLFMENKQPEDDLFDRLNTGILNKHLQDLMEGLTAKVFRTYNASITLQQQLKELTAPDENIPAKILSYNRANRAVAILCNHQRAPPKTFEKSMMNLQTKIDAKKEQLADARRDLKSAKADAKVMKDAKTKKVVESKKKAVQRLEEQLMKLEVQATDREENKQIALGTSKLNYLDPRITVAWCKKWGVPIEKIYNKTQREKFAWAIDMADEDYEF
The series can be described thus: Topo I inhibition assay (DNA relaxation assay). The format is biochemical. The following applies: for IC50: DNA relaxation assay, pBR322, mean ± SD. The method, then:
The DNA relaxation assay was adopted to investigate the compounds’ inhibitory activities on Topo I. Different concentrations of the compounds, dissolved and diluted in DMSO, were added into the relaxation buffer (50 mM Tris, pH 7.5, 50 mM KCl, 10 mM MgCl2, 0.1 mM EDTA, 0.5 Mm dithiothreitol, and 0.05 mg/mL bovine serum albumin) containing 0.2 U Topo I (ThermoFisher, Waltham, MA, USA) and incubated at room temperature for 10 min. After that, 500 ng supercoiled pBR322 plasmid DNA (ThermoFisher, Waltham, MA, USA) was added and then incubated at 37 °C for another 30 min. Finally, the reactions were stopped with a stopping solution (5% sodium dodecyl sulfate, 0.0025% bromophenol blue, and 25% glycerol), and the mixtures were applied onto 0.8% agarose gel and subjected to electrophoresis for 1.5 h in Tris-Acetate-EDTA buffer. After being stained with GelRed (Biotium, Fremont, CA, USA), the gel was imagined with the imaging system (Biotop, Shanghai, China). […] The band density of the supercoiled DNA was quantified by the ImageJ software (version 1.53a, National Institutes of Health, Bethesda, MD, USA), and the inhibition activity is expressed as the percentage inhibition and calculated by formula: Inhibition % = [(A − B)/(C − B)] × 100%, where A is the band density of the tested samples, B is the band density of the negative control, and C is the band density of the blank control.

The next series has as its system HepG2. The experiment in a line: SRB cytotoxicity assay, HepG2. Format: cell-based. The following applies: Homo sapiens, read-out: IC50 Cytotoxicity HepG2.
Description: as §1, §2

The next series has as its system A549. The experiment in a line: SRB cytotoxicity assay, A549. Format: cell-based. The following applies: Homo sapiens, read-out: IC50 Cytotoxicity A549.
Description: as §1, §2

For the next series, the system named is HCT116. The experiment in a line: SRB cytotoxicity assay, HCT116. Format: cell-based. The following applies: Homo sapiens, read-out: IC50 Cytotoxicity HCT116.
Description: as §1, §2

For a further series, the system named is DLD-1. The series can be described thus: SRB cytotoxicity assay, DLD-1. The format is cell-based. The settings on record: Homo sapiens, read-out: IC50 Cytotoxicity DLD-1.
Description: as §1, §2

For a further series, the system named is MDA-MB-231. The experiment in a line: SRB cytotoxicity assay, MDA-MB-231. The format is cell-based. The settings on record: Homo sapiens, read-out: IC50 Cytotoxicity MDA-MB-231.
Description: as §1, §2

Series [2] deals with A549, HCT116, MDA-MB-231, HepG2, DLD-1, HL-7702. The experiment in a line: SRB cytotoxicity assay, panel of five human cancer cell lines and one human hepatocyte cell line. The following applies: tested concentration of 200 μM. The method, then:
The cytotoxicities of 1–29 were tested by an SRB assay on a panel of five human cancer cell lines and one human hepatocyte cell line.
The cytotoxic activities of the compounds against cancer cells were examined with a sulforhodamine B (SRB) colorimetric assay. Cells were seeded at a density of 5 × 10^3/well in 96-well plates for 24 h; various concentrations of the tested compounds, dissolved in DMSO and diluted with the complete medium, were added in the wells in triplicate and incubated for 48 h. After that, the cell viability was assessed with the SRB assay as we described before. The IC50 values were determined using the Reed and Muench method and are expressed as the mean ± SD of at least three independent measurements.

Setting [3] is: HepG2, SRB assay, 48 h, mean ± SD.
The mark [4] stands for this setting: A549, SRB assay, 48 h, mean ± SD.
The mark [5] stands for this setting: HCT-116, SRB assay, 48 h, mean ± SD.
The mark [6] stands for this setting: DLD-1, SRB assay, 48 h, mean ± SD.
Where [7] appears, read: MDA-MB-231, SRB assay, 48 h, mean ± SD.

Molecules are shown by their SMILES. Like-named read-outs stand apart in the source and are kept apart here.

Take `CC#CC#CC#Cc1ccccc1` [Compound 23]: in series [1] (HL-7702 hepatocyte cell line), the IC50 at 48 h was 198.8 ± 0.86 µM. Further, the IC50 against DNA Topo I is greater than 400 µM; in the series on HepG2 (setting [3]), 168 ± 10.8 µM; with A549 (setting [4]) it was 130 ± 4.93 µM; in the series on HCT116 (setting [5]) it was 70.9 ± 3.73 µM; in the series with DLD-1 (setting [6]), 123 ± 8.76 µM; in the series with MDA-MB-231 (setting [7]), 140 ± 5.53 µM. Also, the inhibition at 400 µM on DNA Topo I (at 400 μM, read-out: percentage inhibition on Topo I activity) was determined as 15.2%.
On to `CC#CC#CC#CC=CC1OCCCC1OC(C)=O` (centres unmarked) [Compound 24], for which the IC50 at 48 h in series [1] is greater than 200 µM. Further, the IC50 against DNA Topo I is 218 ± 50.8 µM; in the series with HepG2 (HepG2, 48 h) it was greater than 200 µM; in the series on A549 (A549, 48 h), greater than 200 µM; with HCT116 (HCT-116, 48 h), greater than 200 µM; in the series on DLD-1 (DLD-1, 48 h), greater than 200 µM; in the series with MDA-MB-231 (MDA-MB-231, 48 h) it was greater than 200 µM. Further, the “cytotoxicity in all cell lines” value in series [2] is “no cytotoxicity”.
With `CC#CC#CC#C/C=C/CCC(CCO)O[C@@H]1O[C@H](CO)[C@@H](O)[C@H](O)[C@H]1O` (some centres unmarked) [Compound 25], the half-inhibitory concentration (IC50) at 48 h in series [1] is greater than 200 µM. In addition, the IC50 is greater than 400 µM against DNA Topo I; greater than 200 µM in the series with HepG2 (HepG2, 48 h); 174 ± 12.3 µM with A549 (A549, 48 h); 162 ± 15.8 µM in the series on HCT116 (HCT-116, 48 h); 187 ± 17.4 µM in the series on DLD-1 (DLD-1, 48 h); greater than 200 µM in the series with MDA-MB-231 (MDA-MB-231, 48 h).
As for `CC#CC#CC#C/C=C/CCC(CO)O[C@@H]1O[C@H](CO)[C@@H](O)[C@H](O)[C@H]1O` (some centres unmarked) [Compound 26], the IC50 at 48 h in series [1] (HL-7702 hepatocyte cell line) was greater than 200 µM. In addition, the IC50 was greater than 400 µM against DNA Topo I; greater than 200 µM in the series on HepG2 (setting [3]); 188 ± 15.8 µM in the series on A549 (setting [4]); greater than 200 µM in the series on HCT116 (setting [5]); greater than 200 µM in the series on DLD-1 (setting [6]); greater than 200 µM in the series on MDA-MB-231 (setting [7]).
For the compound `CC#CC#CC#CC#CCCC(CO)O[C@@H]1O[C@H](CO)[C@@H](O)[C@H](O)[C@H]1O` (some centres unmarked) [Compound 27], in series [1] (HL-7702 hepatocyte cell line), the IC50 at 48 h was greater than 200 µM. Moreover, the IC50 on DNA Topo I is greater than 400 µM; in the series on HepG2 (setting [3]) it was greater than 200 µM; in the series with A549 (setting [4]), 188 ± 14.9 µM; in the series on HCT116 (setting [5]), 112 ± 6.59 µM; with DLD-1 (setting [6]) it was 144 ± 7.36 µM; in the series on MDA-MB-231 (setting [7]) it was 164 ± 11.7 µM.
On to `C=C[C@H](O)[C@H](/C=C/C#CC#CC#CC)O[C@@H]1O[C@H](CO)[C@@H](O)[C@H](O)[C@H]1O` [Compound 28], for which, in series [1] (HL-7702 hepatocyte cell line), the concentration for half-maximal inhibition (IC50) at 48 h was greater than 200 µM. In addition, the IC50 against DNA Topo I was greater than 400 µM; with HepG2 (setting [3]) it was greater than 200 µM; with A549 (setting [4]), 190 ± 12.1 µM; in the series on HCT116 (setting [5]), greater than 200 µM; with DLD-1 (setting [6]) it was greater than 200 µM; with MDA-MB-231 (setting [7]), greater than 200 µM.

The record behind these values is paper PMC11314063, “Inhibition of DNA Topoisomerase Ι by Flavonoids and Polyacetylenes Isolated from Bidens pilosa L” (Molecules, 2024).
